# Values quoted from earlier work, collected in patent publication US20050182030A1, “Liquid injectable formulation of disodium pamidronate” (American Pharmaceutical Partners, Inc., priority 2001, published 2005).
# What was measured:
# [1] = approximately normal ambient conditions
# [2] = liquid formulation
# [3] = in vivo
structure (smiles),measurement,setting,value
"NCCC(O)(P(=O)([O-])O)P(=O)([O-])O.O.O.O.O.O.[Na+].[Na+] [pentahydrate, pamidronate disodium pentahydrate]",Stability to storage,[1],stable to storage
NCCC(O)(P(=O)(O)O)P(=O)(O)O [pamidronic acid],Solubility in water,,not soluble in water
"NCCC(O)(P(=O)([O-])O)P(=O)([O-])O.[Na+].[Na+] [pamidronate, 3-amino-1-hydroxypropane-1,1-diphosphonate disodium]",Stability during long-term storage,[2],unstable/reactive
same,Absorption from the gastrointestinal system,[3],poor absorption
